# According to US20140018384A1, “QUINOLINONE DERIVATIVES FOR USE IN THE TREATMENT OF AN AUTOIMMUNE DISEASE AND/OR AN INFLAMMATORY DISEASE” (PRONOXIS AB, priority 2011, published 2014):
# System: PLB-985 cells
# Test: ROS production (isoluminol/HRP luminescence) in PLB-985 cells, Biological Example 1
# Format: cell-based
# Conditions: 25 μM compound vs. DMSO, setup C, read-out: Activity C (fold increase of NADPH activity compared to control)
# Method: To cells (HL-60 or PLB-985) in HBSS medium was added compound (25 or 50 μM), isoluminol and Horse Radish Peroxidase, fraction II. Luminescence was measured for 10-30 minutes and the area under the […] curve was divided by that from a control experiment to give the activity expressed as fold change.
# Each assay indicated below was performed at a different site, at a different time, by different personnel and/or using different cell lines, concentrations and controls. The cell line, concentration of example compound and control used in respect of each assay were as indicated below. The values obtained from these different setups (each using an otherwise identical assay) are given as Activity A, B, C, D or E in Table 5 below. The values are expressed as fold increase of NADPH activity in the presence of the relevant of compound (as indicated below) compared to the relevant control (as indicated below).
# Activity A: HL-60 cells; 50 μM compound vs. blank Activity B: PLB-985 cells; 25 μM compound vs. blank Activity C, D and E: PLB-985 cells; 25 μM compound vs. DMSO
row,SMILES,fold induction at 25 µM
1,"COc1ccc(NC(=O)Cn2cc(C(=O)c3ccco3)c(=O)c3cc4c(cc32)OCO4)cc1 [Example 26, N-p-Anisyl-2-[3-(2-furoyl)-6,7-methylenedioxy-4-oxo-1-quinolinyl]acetamide]",14.9
2,"O=C(Cn1cc(C(=O)c2ccc3ccccc3c2)c(=O)c2cc3c(cc21)OCO3)Nc1ccc(Cl)cn1 [Example 28, N-(5-Chloro-2-pyridyl)-2-[6,7-methylenedioxy-3-(2-naphthoyl)-4-oxo-1-quinolinyl]-acetamide]",16.1
3,"COc1ccc(C(=O)c2cn(CC(=O)Nc3ccc(Cl)cc3)c3cc4c(cc3c2=O)OCO4)cc1 [Example 29, 2-[3-p-Anisoyl-6,7-methylenedioxy-4-oxo-1-quinolinyl]-N-(4-chlorophenyl)acetamide]",55
4,"COc1ccc(NC(=O)Cn2cc(C(=O)c3ccc(C)c(C)c3)c(=O)c3cc4c(cc32)OCO4)c(OC)c1 [Example 30, N-(2,4-Dimethoxyphenyl)-2-[3-(3,4-dimethylbenzoyl)-6,7-methylenedioxy-4-oxo-1-quinolinyl]acetamide]",28.2

# Same assay, conditions: 25 μM compound vs. DMSO, setup D, read-out: Activity D (fold increase of NADPH activity compared to control)
row,SMILES,fold induction at 25 µM
1,"COc1ccc2c(c1)c(=O)c(C(=O)c1ccc3ccccc3c1)cn2CC(=O)Nc1ccc(Cl)cc1 [Example 16, N-(4-Chlorophenyl)-2-[6-methoxy-3-(2-naphthoyl)-4-oxo-1-quinolinyl]acetamide]",35.4
2,"COc1cc2c(=O)c(C(=O)c3ccc4ccccc4c3)cn(CC(=O)Nc3ccc(Cl)cc3)c2cc1OC [Example 17, N-(4-Chlorophenyl)-2-[6,7-dimethoxy-3-(2-naphthoyl)-4-oxo-1-quinolinyl]acetamide]",16.3
3,"COc1ccc2c(=O)c(C(=O)c3ccc4ccccc4c3)cn(CC(=O)Nc3ccc(Cl)cc3)c2c1 [Example 18, N-(4-Chlorophenyl)-2-[7-methoxy-3-(2-naphthoyl)-4-oxo-1-quinolinyl]acetamide]",12.6
4,"COc1cc2c(=O)c(C(=O)c3ccc4ccccc4c3)cn(CC(=O)Nc3ccc(Cl)cc3)c2cc1C [Example 19, N-(4-Chlorophenyl)-2-[6-methoxy-7-methyl-3-(2-naphthoyl)-4-oxo-1-quinolinyl]acetamide]",10.9
5,"COc1cc2c(cc1C)c(=O)c(C(=O)c1ccc3ccccc3c1)cn2CC(=O)Nc1ccc(Cl)cc1 [Example 20, N-(4-Chlorophenyl)-2-[7-methoxy-6-methyl-3-(2-naphthoyl)-4-oxo-1-quinolinyl]acetamide]",6.3
6,"COc1ccc2c(n1)c(=O)c(C(=O)c1ccc3ccccc3c1)cn2CC(=O)Nc1ccc(Cl)cc1 [Example 21, N-(4-Chlorophenyl)-2-[6-methoxy-3-(2-naphthoyl)-4-oxo-(1,5-naphthyridin-1-yl)]acetamide]",68.7

# Same assay, conditions: 25 μM compound vs. DMSO, setup E, read-out: Activity E (fold increase of NADPH activity compared to control)
row,SMILES,fold induction at 25 µM
1,"Cc1ccc(NC(=O)Cn2cc(C(=O)c3ccc4ccccc4c3)c(=O)c3cc4c(cc32)OCO4)cc1 [Example 2, 2-[6,7-Methylenedioxy-3-(2-naphthoyl)-4-oxo-1-quinolinyl]-N-p-tolylacetamide]",10
2,"COc1cccc(NC(=O)Cn2cc(C(=O)c3ccc4ccccc4c3)c(=O)c3cc4c(cc32)OCO4)c1 [Example 3, N-m-Anisyl-2-[6,7-methylenedioxy-3-(2-naphthoyl)-4-oxo-1-quinolinyl]acetamide]",1.8
3,"O=C(Cn1cc(C(=O)c2ccc3ccccc3c2)c(=O)c2cc3c(cc21)OCO3)Nc1cccc(Cl)c1 [Example 4, N-(3-chlorophenyl)-2-[6,7-methylenedioxy-3-(2-naphthoyl)-4-oxo-1-quinolinyl]acetamide]",3.4
4,"O=C(Cn1cc(C(=O)c2ccc3ccccc3c2)c(=O)c2cc3c(cc21)OCO3)Nc1ccc(OC(F)(F)F)cc1 [Example 5, 2-[6,7-Methylenedioxy-3-(2-naphthoyl)-4-oxo-1-quinolinyl]-N-(4-trifluoromethoxyphenyl)acetamide]",4.3
5,"O=C(Cn1cc(C(=O)c2ccc3ccccc3c2)c(=O)c2cc3c(cc21)OCO3)Nc1ccc(Cl)cc1Cl [Example 6, N-(2,4-DichlorophenyI)-2-[6,7-methylenedioxy-3-(2-naphthoyl)-4-oxo-1-quinolinyl]acetamide]",1.7
6,"O=C(Cn1cc(C(=O)c2ccc3ccccc3c2)c(=O)c2cc3c(cc21)OCO3)Nc1ccc(Cl)c(Cl)c1 [Example 7, N-(3,4-Dichlorophenyl)-2-[6,7-methylenedioxy-3-(2-naphthoyl)-4-oxo-1-quinolinyl]acetamide]",2.2
7,"O=C(Cn1cc(C(=O)c2ccc3ccccc3c2)c(=O)c2cc3c(cc21)OCO3)Nc1cccc(OC(F)(F)F)c1 [Example 8, 2-[6,7-Methylenedioxy-3-(2-naphthoyI)-4-oxo-1-quinolinyl]-N-(3-trifluoromethoxyphenyl)acetamide]",1.3
8,"CCCc1ccc(NC(=O)Cn2cc(C(=O)c3ccc4ccccc4c3)c(=O)c3cc4c(cc32)OCO4)cc1 [Example 9, 2-[6,7-Methylenedioxy-3-(2-naphthoyl)-4-oxo-1-quinolinyl]-N-(4-propylphenyl)acetamide]",2
9,"O=C(Cn1cc(C(=O)c2ccc3ccccc3c2)c(=O)c2cc3c(cc21)OCO3)Nc1ccccc1Cl [Example 10, N-(2-ChlorophenyI)-2-[6,7-methylenedioxy-3-(2-naphthoyl)-4-oxo-1-quinolinyl]acetamide]",1.7
10,"O=C(Cn1cc(C(=O)c2ccc3ccccc3c2)c(=O)c2cc3c(cc21)OCO3)Nc1ccc(C(F)(F)F)cc1 [Example 11, 2-[6,7-Methylenedioxy-3-(2-naphthoyl)-4-oxo-1-quinolinyl]-N-(4-trifluoromethylphenyl)acetamide]",8.8
11,"O=C(Cn1cc(C(=O)c2ccc3ccccc3c2)c(=O)c2cc3c(cc21)OCO3)Nc1cccnc1 [Example 12, 2-[6,7-Methylenedioxy-3-(2-naphthoyl)-4-oxo-1-quinolinyl]-N-(3-pyridyl)acetamide]",3.2
12,"CN(C(=O)Cn1cc(C(=O)c2ccc3ccccc3c2)c(=O)c2cc3c(cc21)OCO3)c1ccc(Cl)cc1 [Example 15, N-(4-Chlorophenyl)-N-methyl-2-[6,7-methylenedioxy-3-(2-naphthoyl)-4-oxo-1-quinolinyl]acetamide]",4.3
13,"COc1ccc2c(c1)c(=O)c(C(=O)c1ccc3ccccc3c1)cn2CC(=O)Nc1ccc(Cl)cc1 [Example 16, N-(4-Chlorophenyl)-2-[6-methoxy-3-(2-naphthoyl)-4-oxo-1-quinolinyl]acetamide]",5.9
14,"COc1ccc2c(n1)c(=O)c(C(=O)c1ccc3ccccc3c1)cn2CC(=O)Nc1ccc(Cl)cc1 [Example 21, N-(4-Chlorophenyl)-2-[6-methoxy-3-(2-naphthoyl)-4-oxo-(1,5-naphthyridin-1-yl)]acetamide]",9.2
15,"O=C(Cn1cc(C(=O)c2ccc3ccccc3c2)c(=O)c2nc(O)ccc21)Nc1ccc(Cl)cc1 [Example 22, N-(4-Chlorophenyl)-2-[6-hydroxy-3-(2-naphthoyl)-4-oxo-(1,5-naphthyridin-1-yl)]-acetamide]",20.2
16,"COc1cc2c(cn1)c(=O)c(C(=O)c1ccc3ccccc3c1)cn2CC(=O)Nc1ccc(Cl)cc1 [Example 23, N-(4-Chlorophenyl)-2-[7-methoxy-3-(2-naphthoyl)-4-oxo-(1,6-naphthyridin-1-yl)]-acetamide]",2.1
17,"COc1cc2c(=O)c(C(=O)c3ccc4ccccc4c3)cn(CC(=O)Nc3ccc(Cl)cc3)c2cn1 [Example 24, N-(4-Chlorophenyl)-2-[6-methoxy-3-(2-naphthoyl)-4-oxo-(1,7-naphthyridin-1-yl)]-acetamide]",1.7
18,COc1cccc2c1c(=O)c(C(=O)c1ccc(F)cc1)cn2CC(=O)Nc1ccc(Cl)cc1 [Example 25],34.6
19,"COc1ccc(NC(=O)Cn2cc(C(=O)c3ccc(C)c(C)c3)c(=O)c3cc4c(cc32)OCO4)c(OC)c1 [Example 30, N-(2,4-Dimethoxyphenyl)-2-[3-(3,4-dimethylbenzoyl)-6,7-methylenedioxy-4-oxo-1-quinolinyl]acetamide]",4.1
